Earlier results in PMC10323144, “Garbage in, garbage out: how reliable training data improved a virtual screening approach against SARS-CoV-2 MPro” (Frontiers in Pharmacology, 2023).

System: MPro
Details: compiled from peer-reviewed sources (287 compounds) ref the 18 original articles; cited from earlier work

| Molecule | Class (MPro activity class) |
| --- | --- |
| O=C(Nc1cccnc1)N(CCC1CCCCC1)c1cccc(Cl)c1 [JOR-UNI-2fc98d0b-12] | 1 (Compounds with IC50 < 10 µM or with a percentage of enzyme inhibition >50% at 10 µM were labelled as ACTIVE) |
| Cc1cc(Nc2cc(CN3CCOCC3)c3nc(C)c(Cc4ccc(Cl)cc4F)n3n2)n[nH]1 [GANDOTINIB] | 0 (compounds with IC50 > 20 μM, percentage inhibition <80% at 20 µM or 50 μM, or percentage enzyme inhibition <50% at 10 µM were labelled as INACTIVE) |
| CC(C)CCC(=O)CC1c2ccccc2C(=O)N1c1ccc2ccc(Cl)nc2n1 (centres unmarked) [PAGOCLONE] | 0 (compounds with IC50 > 20 μM, percentage inhibition <80% at 20 µM or 50 μM, or percentage enzyme inhibition <50% at 10 µM were labelled as INACTIVE) |
| O=C(Cn1ccnc1[N+](=O)[O-])NCc1ccccc1 [BENZNIDAZOLE] | 0 (compounds with IC50 > 20 μM, percentage inhibition <80% at 20 µM or 50 μM, or percentage enzyme inhibition <50% at 10 µM were labelled as INACTIVE) |
| O=c1[nH]cc(-c2cc(-c3cc(Cl)cc(OCc4cccc(F)c4)c3)c(=O)n(-c3cccnc3)c2)c(=O)[nH]1 [compound 19] | 1 (Compounds with IC50 < 10 µM or with a percentage of enzyme inhibition >50% at 10 µM were labelled as ACTIVE) |
| N#Cc1ccccc1-c1cc(-c2cc(Cl)cc(OCCc3ccccc3)c2)c(=O)n(-c2cccnc2)c1 [compound 8] | 1 (Compounds with IC50 < 10 µM or with a percentage of enzyme inhibition >50% at 10 µM were labelled as ACTIVE) |
| COC(=O)C1=CO[C@@H](O[C@@H]2O[C@H](CO)[C@@H](O)[C@H](O)[C@H]2O)[C@@H]2[C@@H](C)[C@@H](O)C[C@H]12 [Loganin] | 0 (compounds with IC50 > 20 μM, percentage inhibition <80% at 20 µM or 50 μM, or percentage enzyme inhibition <50% at 10 µM were labelled as INACTIVE) |
| O=c1c(O)c(-c2ccc(O)cc2)oc2c(O)c(O)cc(O)c12 [Herbacetin] | 0 (compounds with IC50 > 20 μM, percentage inhibition <80% at 20 µM or 50 μM, or percentage enzyme inhibition <50% at 10 µM were labelled as INACTIVE) |
| O=C(CCl)N1CCN(Cc2cccc(Cl)c2)CC1 [MED-COV-4280ac29-15] | 1 (Compounds with IC50 < 10 µM or with a percentage of enzyme inhibition >50% at 10 µM were labelled as ACTIVE) |
| CC(NC(=O)C(O)c1cc(F)cc(F)c1)C(=O)NC1C(=O)N(C)c2ccccc2-c2ccccc21 (centres unmarked) [LY411575] | 0 (compounds with IC50 > 20 μM, percentage inhibition <80% at 20 µM or 50 μM, or percentage enzyme inhibition <50% at 10 µM were labelled as INACTIVE) |
| O=C(C=Cc1ccccc1)NC(CC1CCCCC1)C(=O)NC(CC1CCNC1=O)C(=O)C(=O)NCc1ccccc1 (centres unmarked) [compound 11r] | 1 (Compounds with IC50 < 10 µM or with a percentage of enzyme inhibition >50% at 10 µM were labelled as ACTIVE) |
| CCN(CCO)CCCC(C)Nc1ccnc2cc(Cl)ccc12 (centres unmarked) [Hydroxychloroquine] | 0 (compounds with IC50 > 20 μM, percentage inhibition <80% at 20 µM or 50 μM, or percentage enzyme inhibition <50% at 10 µM were labelled as INACTIVE) |
| COC(=O)N[C@H](C(=O)N1CCC[C@H]1C(=O)Nc1ccc([C@@H]2CC[C@@H](c3ccc(NC(=O)[C@@H]4CCCN4C(=O)[C@@H](NC(=O)OC)C(C)C)cc3)N2c2ccc(C(C)(C)C)cc2)cc1)C(C)C [Ombitasvir] | 0 (compounds with IC50 > 20 μM, percentage inhibition <80% at 20 µM or 50 μM, or percentage enzyme inhibition <50% at 10 µM were labelled as INACTIVE) |
| Cn1nc(C(C)(C)C)cc1C(=O)NC(Cc1cccc(Cl)c1)C(=O)NCC#N (centres unmarked) [Cathepsin inhibitor 1] | 0 (compounds with IC50 > 20 μM, percentage inhibition <80% at 20 µM or 50 μM, or percentage enzyme inhibition <50% at 10 µM were labelled as INACTIVE) |
| Cc1ccncc1NC(=O)Cc1cccc(Br)c1 [JAN-GHE-83b26c96-12] | 0 (compounds with IC50 > 20 μM, percentage inhibition <80% at 20 µM or 50 μM, or percentage enzyme inhibition <50% at 10 µM were labelled as INACTIVE) |
| CC(C)CC1CN(C(=O)CCl)CCN1Cc1cccc(Cl)c1 (centres unmarked) [DAN-LON-a5fc619e-3] | 1 (Compounds with IC50 < 10 µM or with a percentage of enzyme inhibition >50% at 10 µM were labelled as ACTIVE) |
| O=C(Cc1cccc(Cl)c1)Nn1cnc2ccccc2c1=O [JAN-GHE-5a013bed-3] | 1 (Compounds with IC50 < 10 µM or with a percentage of enzyme inhibition >50% at 10 µM were labelled as ACTIVE) |
| COCc1cc(Cl)cc(CN2CCN(C(=O)CCl)CC2)c1 [MED-COV-4280ac29-33] | 1 (Compounds with IC50 < 10 µM or with a percentage of enzyme inhibition >50% at 10 µM were labelled as ACTIVE) |
| CCC[C@H](NC(=O)[C@@H]1[C@H]2CCC[C@H]2CN1C(=O)[C@@H](NC(=O)[C@@H](NC(=O)c1cnccn1)C1CCCCC1)C(C)(C)C)C(=O)C(=O)NC1CC1 [Telaprevir] | 0 (compounds with IC50 > 20 μM, percentage inhibition <80% at 20 µM or 50 μM, or percentage enzyme inhibition <50% at 10 µM were labelled as INACTIVE) |
| CC(C)OC(=O)[C@H](C)N[P@](=O)(OC[C@H]1O[C@@H](n2ccc(=O)[nH]c2=O)[C@](C)(F)[C@@H]1O)Oc1ccccc1 [Sofosbuvir] | 0 (compounds with IC50 > 20 μM, percentage inhibition <80% at 20 µM or 50 μM, or percentage enzyme inhibition <50% at 10 µM were labelled as INACTIVE) |
| CCOC(=O)c1c(CSc2ccccc2)n(C)c2cc(Br)c(O)c(CN(C)C)c12 [Umifenovir] | 0 (compounds with IC50 > 20 μM, percentage inhibition <80% at 20 µM or 50 μM, or percentage enzyme inhibition <50% at 10 µM were labelled as INACTIVE) |

| Molecule | Class (MPro activity class) |
| --- | --- |
| Cc1ncccc1NC(=O)Cc1cccc(Cl)c1 [EDG-MED0da5ad92-14] | 0 (compounds with IC50 > 20 μM, percentage inhibition <80% at 20 µM or 50 μM, or percentage enzyme inhibition <50% at 10 µM were labelled as INACTIVE) |
| COc1cccc2[nH]c(C(=O)NC(CC(C)C)C(=O)NC(CC3CCNC3=O)C(=O)c3nc4ccccc4s3)cc12 (centres unmarked) [5h] | 1 (Compounds with IC50 < 10 µM or with a percentage of enzyme inhibition >50% at 10 µM were labelled as ACTIVE) |
| Cc1ccncc1NC(=O)Cc1cccc(C#N)c1 [TRY-UNI-714a760b-20] | 0 (compounds with IC50 > 20 μM, percentage inhibition <80% at 20 µM or 50 μM, or percentage enzyme inhibition <50% at 10 µM were labelled as INACTIVE) |
| CC(C)(F)C[C@H](N[C@@H](c1ccc(-c2ccc(S(C)(=O)=O)cc2)cc1)C(F)(F)F)C(=O)NC1(C#N)CC1 [Odanacatib] | 0 (compounds with IC50 > 20 μM, percentage inhibition <80% at 20 µM or 50 μM, or percentage enzyme inhibition <50% at 10 µM were labelled as INACTIVE) |
| CC(C)c1nc(CN(C)C(=O)N[C@H](C(=O)N[C@@H](Cc2ccccc2)C[C@H](O)[C@H](Cc2ccccc2)NC(=O)OCc2cncs2)C(C)C)cs1 [Ritonavir] | 0 (compounds with IC50 > 20 μM, percentage inhibition <80% at 20 µM or 50 μM, or percentage enzyme inhibition <50% at 10 µM were labelled as INACTIVE) |
| O=C1c2ccccc2NC(c2cc(Cl)ccc2O)N1N=Cc1cc(Cl)ccc1O (centres unmarked) [QZ2] | 1 (Compounds with IC50 < 10 µM or with a percentage of enzyme inhibition >50% at 10 µM were labelled as ACTIVE) |
| COc1cc(CN2CCN(C(=O)CCl)CC2)c2ccccc2c1 [DAR-DIA-fb20be43-7] | 1 (Compounds with IC50 < 10 µM or with a percentage of enzyme inhibition >50% at 10 µM were labelled as ACTIVE) |
| Cn1c(=O)cc(N2CCC[C@@H](N)C2)n(Cc2cc(F)ccc2C#N)c1=O [Trelagliptin] | 0 (compounds with IC50 > 20 μM, percentage inhibition <80% at 20 µM or 50 μM, or percentage enzyme inhibition <50% at 10 µM were labelled as INACTIVE) |
| COC(=O)NC(C(=O)NC(Cc1ccccc1)C(O)CN(Cc1ccc(-c2ccccn2)cc1)NC(=O)C(NC(=O)OC)C(C)(C)C)C(C)(C)C (centres unmarked) [Atanazavir] | 0 (compounds with IC50 > 20 μM, percentage inhibition <80% at 20 µM or 50 μM, or percentage enzyme inhibition <50% at 10 µM were labelled as INACTIVE) |
| Cc1cc(C(=O)CN2CCCC2)c(C)n1-c1ccc(F)cc1 [IU1 S7134] | 0 (compounds with IC50 > 20 μM, percentage inhibition <80% at 20 µM or 50 μM, or percentage enzyme inhibition <50% at 10 µM were labelled as INACTIVE) |
| O=C(OCC(O)CO)c1ccccc1Nc1ccnc2cc(Cl)ccc12 (centres unmarked) [GLAFENINE] | 0 (compounds with IC50 > 20 μM, percentage inhibition <80% at 20 µM or 50 μM, or percentage enzyme inhibition <50% at 10 µM were labelled as INACTIVE) |
| O=c1[nH]cc(-c2cc(-c3cc(Cl)cc(OCc4ccccc4)c3)c(=O)n(-c3cccnc3)c2)c(=O)[nH]1 [compound 14] | 1 (Compounds with IC50 < 10 µM or with a percentage of enzyme inhibition >50% at 10 µM were labelled as ACTIVE) |
| O=C(Oc1cncc(Cl)c1)c1cccc2c1CCN2 [GRL-172] | 1 (Compounds with IC50 < 10 µM or with a percentage of enzyme inhibition >50% at 10 µM were labelled as ACTIVE) |
| COc1cccc2[nH]c(C(=O)NC(CC(C)C)C(=O)NC(CC3CCNC3=O)C(=O)CO)cc12 (centres unmarked) [PF-00835231] | 1 (Compounds with IC50 < 10 µM or with a percentage of enzyme inhibition >50% at 10 µM were labelled as ACTIVE) |
| CCCC(NC(=O)C(CC(C)C)NC(=O)OCc1ccccc1)C(=O)C(=O)NCc1ccccc1 (centres unmarked) [UAWJ257] | 0 (compounds with IC50 > 20 μM, percentage inhibition <80% at 20 µM or 50 μM, or percentage enzyme inhibition <50% at 10 µM were labelled as INACTIVE) |
| O=C(CCl)Nc1nc2c(S(=O)(=O)NCCc3ccccc3)cccc2s1 [DUN-NEW-f8ce3686-23] | 1 (Compounds with IC50 < 10 µM or with a percentage of enzyme inhibition >50% at 10 µM were labelled as ACTIVE) |
| O=C(Cc1cccc(Cl)c1)Nc1cccnc1 [EDG-MED0da5ad92-2] | 0 (compounds with IC50 > 20 μM, percentage inhibition <80% at 20 µM or 50 μM, or percentage enzyme inhibition <50% at 10 µM were labelled as INACTIVE) |
| O=C(CCl)N1CCN(Cc2cc(Cl)ccc2CNC(=O)N2CCOCC2)CC1 [STU-CHA-6cae54d3-1] | 1 (Compounds with IC50 < 10 µM or with a percentage of enzyme inhibition >50% at 10 µM were labelled as ACTIVE) |
| cangrelor | 0 (compounds with IC50 > 20 μM, percentage inhibition <80% at 20 µM or 50 μM, or percentage enzyme inhibition <50% at 10 µM were labelled as INACTIVE) |
| CC(C)CC(NC(=O)C1OC1C(=O)O)C(=O)NCCCCN=C(N)N (centres unmarked) [E-64] | 0 (compounds with IC50 > 20 μM, percentage inhibition <80% at 20 µM or 50 μM, or percentage enzyme inhibition <50% at 10 µM were labelled as INACTIVE) |
